Data published in ChEMBL document CHEMBL1158719, “Cytotoxic xanthones from Cudrania tricuspidata” (J Nat Prod, 2005).

How the values were obtained:
[1] = system: A549; assay: Cytotoxicity against human A549 cells after 48 hrs by SRB assay; type: functional, cell-based; conditions: A549, 48 h
[2] = system: SK-OV-3; assay: Cytotoxicity against human SKOV3 cells after 48 hrs by SRB assay; type: functional, cell-based; conditions: SK-OV-3, 48 h

| Compound | IC50 [1] [µM] | IC50 [2] [µM] |
| --- | --- | --- |
| C=CC(C)(C)c1c(O)cc(O)c2c(=O)c3c(CC=C(C)C)c(O)c(O)cc3oc12 [CUDRATRICUSXANTHONE A] | 5.93 | 7.09 |
| C=CC(C)(C)c1c(O)cc2oc3c(CC=C(C)C)c(O)c(O)cc3c(=O)c2c1O [CUDRAXANTHONE L] | 3.15 | 4.72 |
| C=CC(C)(C)c1c(O)c(CC=C(C)C)c2oc3cc(O)c(O)cc3c(=O)c2c1O [MACLURAXANTHONE B] | 2.88 | 4.24 |
| CC(=O)O[C@H]1C(=O)[C@@]2(C)[C@H]([C@H](OC(=O)c3ccccc3)[C@]3(O)C[C@H](OC(=O)[C@H](O)[C@@H](NC(=O)c4ccccc4)c4ccccc4)C(C)=C1C3(C)C)[C@]1(OC(C)=O)CO[C@@H]1C[C@@H]2O [PACLITAXEL] | 1.25 | 1.35 |
